Laboratory results reported in PMC12307812 (Nature Communications, 2025).
Like-named read-outs stand apart in the source and are kept apart here.

System: SARS-CoV-2 isolate hCoV-19/Germany/FI1103201/2020
Test: microbe, parasite or virus in culture
Type: cell-based

With `CC(C)(C)NC(=O)N1CCN(C(=O)N2C(=O)C(CCCNC(=N)N)C2C(=O)O)CC1` (centres unmarked) [BMS-262084] the IC50 (Severe acute respiratory syndrome coronavirus 2, Calu-3, 24 h, read-out: IC50, relative infectivity of SARS-CoV-2) was 510 nM and the IC50 (Severe acute respiratory syndrome coronavirus 2, Calu-3 cells, Figure S5, read-out: IC50 estimate, SARS-CoV-2 entry inhibition) was 509 ± 146 nM.
